Literature values as cited in patent publication US20080181972A1, “Compositions and Methods for Maintaining, Strengthening, Improving, or Promoting Eye Health” (priority 2007, published 2008).
Values belong to the compound of their own block, whether it stands above or below them.

What was measured:
[1] = short- and long-term studies
[2] = long-term feeding to rats, 1% in drinking water
[3] = test system: intracellular GSH; conditions: in vitro (cell culture)
[4] = test system: intracellular GSH in lung, liver and kidney cells; conditions: in vivo, liver and kidney cells of mice injected daily with 4, 8, or 16 mg/kg for 11 days
[5] = test system: human endothelial cell cultures
[6] = test system: retina of diabetic rats
[7] = test system: AGE from Amadori adducts; conditions: in vitro and in vivo studies
[8] = test system: LDL; conditions: conjugated diene, lipid peroxides and TBARS after cupric sulfate
[9] = test system: H2O2 formation; conditions: both in vitro and in vivo
[10] = test system: bovine aortic endothelial cell- and human endothelial cell-mediated LDL oxidation; conditions: bovine aortic and human endothelial cells
[11] = phytoestrogenic isoflavones
[12] = in vivo

Structure (SMILES): NC(=O)c1cccnc1 [niacinamide]
toxicity [1]: low toxicity
carcinogenic effects [2]: No carcinogenic effects

ill effects (daily dose of 19.25 mg over 29 days, healthy humans): no ill effects
Structure (SMILES): CC1=C(/C=C/C(C)=C/C=C/C(C)=C/C=C/C=C(C)/C=C/C=C(C)/C=C/C2=C(C)C(=O)[C@@H](O)CC2(C)C)C(C)(C)C[C@H](O)C1=O [Astaxanthin]

Structure (SMILES): O=C(O)CCCCC1CCSS1 (stereo not drawn) [ALA, Alpha-lipoic acid]
increase of intracellular GSH levels [3]: 30-70%
increase of intracellular GSH levels [4]: 30-70%

Structure (SMILES): Cc1ncc(C[n+]2csc(CCO)c2C)c(N)n1 [thiamine]
AGE generation [5]: effective in reducing AGE generation
AGE accumulation in the retina [6]: preventing AGE accumulation

Structure (SMILES): Cc1ncc(CO)c(CN)c1O [PM, pyridoxamine]
inhibition of the formation of AGE from Amadori adducts [7]: potent inhibitor

Structure (SMILES): O=C1O[C@H]([C@@H](O)CO)C(O)=C1O [vitamin C, Ascorbic acid]
daily intake without any known adverse effects (consumed daily): ≥ 1,000 mg

Structure (SMILES): O=c1c(-c2ccc(O)cc2)coc2cc(O)cc(O)c12 [genistein]
order of ability to reduce LDL oxidizability [8]: quercetine>morin>pelargonidin>genistein>naringin>apigenin
tumor promoter-induced H2O2 formation [9]: strongly inhibited
endothelial cell-mediated LDL oxidation [10]: inhibited
order of reactivity in scavenging the radical in the aqueous phase [11]: genistein>daidzein=genistin approximately equal to biochanin A=daidzein>formononentin approximately equal to onionin

Structure (SMILES): CC(=O)Oc1c(C)c(C)c2c(c1C)CC[C@@](C)(CCC[C@H](C)CCC[C@H](C)CCCC(C)C)O2 (racemic) [DL-α-tocopheryl acetate]
level at which no adverse effects have been observed (in vivo): ≤ 800 mg

Structure (SMILES): CC1=C(/C=C/C(C)=C/C=C/C(C)=C/C=C/C=C(C)/C=C/C=C(C)/C=C/C2=C(C)CCCC2(C)C)C(C)(C)CCC1 [beta-carotene, Beta-carotene]
dosage level with no observed adverse effects (healthy, non-smokers): ≤ 25 mg per day
adverse effects observed (individuals who receive 20 mg/day): increased risk of fatal coronary heart attacks in men with previous myocardial infarction and an increased risk of lung cancer among male smokers
efficiency of conversion to vitamin A in the body [12]: approximately 50%

Structure (SMILES): C/C(=C(\CCOP(=O)(O)O)SC(=O)c1ccccc1)N(C=O)Cc1cnc(C)nc1N [benfotiamine]
AGE generation [5]: effective in reducing AGE generation
AGE accumulation in the retina [6]: preventing AGE accumulation
